Source: ChEMBL document CHEMBL5728524, “Apoptosis signal-regulating kinase inhibitors and uses thereof” (2021)

Target: T1, Mitogen-activated protein kinase kinase kinase 5 (Homo sapiens, UniProt Q99683)
T1 sequence (Q99683 whole entry): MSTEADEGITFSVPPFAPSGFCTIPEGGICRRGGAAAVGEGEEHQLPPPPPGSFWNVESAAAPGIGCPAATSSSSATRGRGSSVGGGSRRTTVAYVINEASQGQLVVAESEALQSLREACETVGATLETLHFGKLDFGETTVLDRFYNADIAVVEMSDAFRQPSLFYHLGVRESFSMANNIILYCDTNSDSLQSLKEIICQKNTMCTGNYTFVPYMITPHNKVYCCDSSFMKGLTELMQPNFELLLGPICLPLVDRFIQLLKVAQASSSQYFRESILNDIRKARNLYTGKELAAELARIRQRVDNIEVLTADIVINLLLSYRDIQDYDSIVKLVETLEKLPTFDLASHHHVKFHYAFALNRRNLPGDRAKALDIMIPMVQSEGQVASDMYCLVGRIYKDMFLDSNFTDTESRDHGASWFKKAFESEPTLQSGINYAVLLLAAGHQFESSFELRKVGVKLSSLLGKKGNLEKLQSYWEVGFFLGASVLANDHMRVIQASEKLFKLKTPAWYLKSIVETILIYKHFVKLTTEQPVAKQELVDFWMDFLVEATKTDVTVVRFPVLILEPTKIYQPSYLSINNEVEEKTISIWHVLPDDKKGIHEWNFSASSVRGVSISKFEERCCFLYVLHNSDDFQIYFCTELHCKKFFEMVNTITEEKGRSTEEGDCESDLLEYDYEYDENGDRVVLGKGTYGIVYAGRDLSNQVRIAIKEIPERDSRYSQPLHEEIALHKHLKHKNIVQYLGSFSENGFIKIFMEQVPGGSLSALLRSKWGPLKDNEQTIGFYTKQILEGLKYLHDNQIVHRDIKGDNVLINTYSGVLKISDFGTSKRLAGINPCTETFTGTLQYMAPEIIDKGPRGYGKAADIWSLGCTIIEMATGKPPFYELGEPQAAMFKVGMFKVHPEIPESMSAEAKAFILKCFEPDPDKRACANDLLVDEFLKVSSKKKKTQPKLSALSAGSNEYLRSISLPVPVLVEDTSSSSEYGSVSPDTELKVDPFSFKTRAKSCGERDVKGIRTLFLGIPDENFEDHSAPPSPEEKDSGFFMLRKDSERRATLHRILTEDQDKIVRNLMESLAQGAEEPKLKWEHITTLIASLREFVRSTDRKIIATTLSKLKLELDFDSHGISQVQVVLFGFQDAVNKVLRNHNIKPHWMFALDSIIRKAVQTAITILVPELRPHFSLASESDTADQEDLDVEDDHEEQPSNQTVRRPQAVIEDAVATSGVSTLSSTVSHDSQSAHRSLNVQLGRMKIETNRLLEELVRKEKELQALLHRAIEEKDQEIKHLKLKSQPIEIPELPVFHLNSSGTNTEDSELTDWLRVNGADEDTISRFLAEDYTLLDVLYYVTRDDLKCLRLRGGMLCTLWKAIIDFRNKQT
Assay: Biochemical Assay: The binding of compounds to ASK1 were determined using DiscoverX's proprietary technology. […] The assay is performed by combining three components: DNA-tagged ASK1 kinase; immobilized ligand; and a test compound. The ability of the test compound to compete with the immobilized ligand is measured via quantitative PCR of the DNA tag. […] The liganded beads were blocked with excess biotin and washed with blocking buffer (SeaBlock (Pierce), 1% BSA, 0.05% Tween 20, 1 mM DTT) to remove unbound ligand and to reduce nonspecific binding. […] Kds were determined using an 11-point 3-fold compound dilution series with three DMSO control points. […] The compounds were then diluted directly into the assays such that the final concentration of DMSO was 0.9%. All reactions were performed in polypropylene 384-well plate. […] The kinase concentration in the eluates was measured by qPCR. Most Kds were determined using a compound top concentration=30,000 nM.

`O=C1Nc2cccc(n2)-c2nncn2CCCCOc2ccc(-c3ccc(CCF)nc3)cc21` gave a Kd of less than 100 nM.

For `Cc1ncc(-c2ccc3c(c2)C(=O)Nc2cccc(n2)-c2nncn2CCCCO3)cc1F`, the Kd was less than 100 nM.
